# Reference: article PMC5845537 (Frontiers in Pharmacology, 2018)
# Where two headings read alike, the source gives them in different places.
# Experiments:
# [1] = system: 5-HT1A receptors; conditions: 2014, cited from earlier work
# [2] = system: GABAA receptor; assay: Ex vivo autoradiography, GABAA receptor saturation binding ([3H]muscimol), medial prefrontal cortex; set-up: species or system rat; conditions: PCP/vortioxetine group vs all other treatment groups
# Description: Rats used in ex vivo autoradiography (EVA) experiments were randomly assigned to one of four experimental groups characterized by either subchronic saline or PCP (as described above) along with either vehicle or vortioxetine-infused food (1.8 g vortioxetine/kg food weight, as described in the attentional set shifting task). On day 8 of PCP withdrawal, rats were anesthetized using CO2 and killed by decapitation. Brains were quickly and gently removed from the skull, flash frozen on powdered dry ice, and stored at -20°C until sectioning. Later, 12 μm coronal sections were collected from an area ranging from approximately +4.2 mm to +2.3 mm anterior to Bregma ([Paxinos and Watson, 1998]) using a cryostat (MicroM, Germany) and were thaw-mounted on glass microscope slides. This range of coronal slices was chosen in order to study the prelimbic and infralimbic subregions of the medial prefrontal cortex, given the importance of these regions in tests of executive function such as the attentional set shifting task ([Ng et al., 2007]). After the tissue mounted on the microscope slides had dried thoroughly (in order to reduce damage from freezing), slides were packed into slide boxes with desiccator pellets, and stored at -20°C for use in EVA saturation binding and competition experiments.
# Each of the EVA procedures used in this study are variations on a similar theme. On the day of an experiment, slide-boxes were defrosted under a constant stream of air at room temperature until the boxes were dry and equilibrated with the environment in terms of temperature. This step was undertaken in order to ensure brain tissue was not damaged by frosting due to a sudden change in humidity. Prior to any binding experiments, slides were preincubated in the appropriate preincubation buffer and dried at room temperature. Subsequently, tissue was incubated in an assay buffer containing a radioligand appropriate for the receptor of interest, then rinsed in assay buffer, and dried overnight in a vacuum desiccator. Specific information on the contents of the preincubation buffers, assay buffers and other assay conditions are listed in Table 2. Finally, slides were opposed to a tritium-sensitive phosphor screen (Fuji imaging plate, GE Healthcare, Pittsburgh, PA, United States) for 5 days before being read in a phosphorimager (Typhoon FLA7000, GE Healthcare). Analysis methods are listed below under statistical analyses.
# In saturation binding experiments, the concentration of the relevant radioligand in the assay buffer was systematically varied in order to determine the KD and Bmax of the receptor in question. At each radioligand concentration, the non-specific binding was determined on a separate slide by including a high concentration of a non-radioactive competitor ligand in the assay buffer along with the radioligand. For GABAA receptor saturation binding experiments, [^3H]muscimol was examined in quarter log steps ranging from 0.56 to 300 nM. For GABAB receptor saturation binding experiments, [^3H]CGP54626 was examined in quarter log steps ranging from 0.17 to 100 nM.
# For saturation binding studies, the primary dependent measures were pKD and Bmax. […] A linear regression was performed to determine the relationship between intensity and bound radioactivity (measured on the standards in units of μCi/g). […] These optical intensity values were transformed into bound radioactivity (expressed as nCi/mg) measurements by interpolation from the standard curve noted above. […]
# [3] = system: rodent 5-HT1A receptors; conditions: rodent vs human; no reference given; cited from earlier work
smiles,measurement,setting,value
Cc1ccc(Sc2ccccc2N2CCNCC2)c(C)c1 [vortioxetine],occupancy at 5-HT1A receptors,"[1]; 10 mg/kg 1 h s.c., ref Leiser et al.",≈ 40%
same,occupancy at 5-HT1A receptors,"[1]; subchronic dose used in the mouse OR and object placement tasks, expected, ref Wallace et al., Waller et al., 2017",negligible
same,effect of treatment on [3H]muscimol affinity for the GABAA receptor,[2],small but significant reduction
same,lesser affinity at rodent 5-HT1A receptors by comparison to humans,[3],approximately 10 fold
